In assay [1] the target is T1, human B1R (bradykinin receptor 1) (Homo sapiens, UniProt P46663).
T1 construct: expressed in transfected cells; host or cells: CHO K1 cells
T1 sequence (P46663 1-353): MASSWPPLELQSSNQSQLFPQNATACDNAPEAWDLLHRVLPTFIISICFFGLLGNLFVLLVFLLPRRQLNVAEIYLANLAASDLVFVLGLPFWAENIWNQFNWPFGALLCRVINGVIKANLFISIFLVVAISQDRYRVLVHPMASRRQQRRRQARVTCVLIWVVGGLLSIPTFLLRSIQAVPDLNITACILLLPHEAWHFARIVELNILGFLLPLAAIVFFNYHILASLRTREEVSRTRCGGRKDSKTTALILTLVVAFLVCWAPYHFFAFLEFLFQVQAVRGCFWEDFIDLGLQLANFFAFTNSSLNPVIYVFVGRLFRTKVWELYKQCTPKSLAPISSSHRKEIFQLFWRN
Kind of assay: FLIPR Ca2+ assay (Fluo-4) on CHO K1 cells stably transfected with the human B1R gene (hB1R cells): % inhibition at 10 μM / IC50, agonist Lys-Des-Arg9-bradykinin. Type of assay: cell-based. The conditions noted are these: CHO-K1, human B1R. The essentials: (§1)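 Cells were Fluo-4-loaded, then test compound (10 μM, or a concentration series for IC50) was preincubated 10–20 min before agonist challenge at EC80: Lys-Des-Arg9-bradykinin for hB1R, Des-Arg9-bradykinin for rB1R. Peak Ca2+ fluorescence (ex 488/em 540 nm) gave % inhibition versus maximal achievable inhibition.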

Assay [2] concerns the target T2, rat B1R (bradykinin receptor 1) (Rattus norvegicus, UniProt P97583).
T2 construct: expressed in transfected cells; host or cells: CHO K1 cells
T2 sequence (P97583 1-337): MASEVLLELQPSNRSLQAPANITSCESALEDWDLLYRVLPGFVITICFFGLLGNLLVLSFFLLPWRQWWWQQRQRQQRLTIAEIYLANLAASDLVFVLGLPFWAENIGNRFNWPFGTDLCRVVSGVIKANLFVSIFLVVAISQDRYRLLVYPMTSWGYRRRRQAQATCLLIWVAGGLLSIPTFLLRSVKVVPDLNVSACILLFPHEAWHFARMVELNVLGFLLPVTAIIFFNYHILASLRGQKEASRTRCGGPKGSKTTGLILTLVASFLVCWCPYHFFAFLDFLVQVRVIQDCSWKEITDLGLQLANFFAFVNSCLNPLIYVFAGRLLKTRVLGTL
Kind of assay: FLIPR Ca2+ assay (Fluo-4) on CHO K1 cells stably transfected with the B1R gene of the rat (rB1R cells): % inhibition at 10 μM / IC50, agonist Des-Arg9-bradykinin. It counts as cell-based. The note with it: CHO-K1, rat B1R. The essentials:
as §1

Turning to `O=C(N[C@@H]1CCc2ccc(C(=O)N3CCC4(CC3)CCN(c3ccncc3)CC4)cc21)c1c(Cl)cccc1C(F)(F)F` [Example H-85, 2-Chloro-N-[(1R)-6-(9-pyridin-4-yl-3,9-diazaspiro[5.5]undecane-3-carbonyl]-2,3-dihydro-1H-inden-1-yl]-6-(trilfuoromethyl)-benzamide], the inhibition at 10 µM stood at 100% in assay [1] and 103% in assay [2].
For `O=C(N[C@@H]1CCc2ccc(C(=O)N3CCC4(CC3)CCN(c3ccncc3)C4)cc21)c1cncnc1` [Example H-86, N-[(1R)-6-(3-Pyridin-4-yl-3,8-diazaspiro[4.5]decane-8-carbonyl)-2,3-dihydro-1H-inden-1-yl]-pyrimidine-5-carboxylic acid amide], the inhibition at 10 µM stood at 95% in assay [1] and 79% in assay [2].
Taken in the same sequence, the figures for `O=C(N[C@@H]1CCCc2cc(F)c(C(=O)N3CCC4(CC3)CCN(c3ccncc3)C4)cc21)c1ccccc1Cl` [Example H-87, 2-Chloro-N-[(1R)-6-fluoro-7-(3-pyridin-4-yl-3,8-diazaspiro[4.5]decane-8-carbonyl)-1,2,3,4-tetrahydro-naphthalen-1-yl]-benzamide] were 99% and 103%.
For `O=C(N[C@@H]1CCCc2cc(F)c(C(=O)N3CCC4(CC3)CCN(c3ccncc3)CC4)cc21)c1ccccc1Cl` [Example H-88], the inhibition at 10 µM was found to be 100% in assay [1] and 104% in assay [2].
Regarding `O=C(N[C@@H]1CCc2cc(F)c(C(=O)N3CCC4(CC3)CCN(c3ccncc3)C4)cc21)c1ccccc1Cl` [Example H-89, 2-Chloro-N-[(1R)-5-fluoro-6-(3-pyridin-4-yl-3,8-diazaspiro[4.5]decane-8-carbonyl)-2,3-dihydro-1H-inden-1-yl]-benzamide], the figures for the inhibition at 10 µM in assay [1] and in assay [2] were 99% and 103%, respectively.
Taken in the same sequence, the figures for `O=C(N[C@@H]1CCc2cc(F)c(C(=O)N3CCC4(CC3)CCN(c3ccncc3)CC4)cc21)c1ccccc1Cl` [Example H-90, 2-Chloro-N-[(1R)-5-fluoro-6-(9-pyridin-4-yl-3,9-diazaspiro[5.5]undecane-3-carbonyl)-2,3-dihydro-1H-inden-1-yl]-benzamide] were 100% and 103%.
On the same counts, the results for `O=C(N[C@@H]1CCc2ccc(C(=O)N3CCC4(CC3)CCN(c3ccncc3)C4)cc21)c1ccccc1Cl` [Example H-91, 2-Chloro-N-[(1R)-6-(3-pyridin-4-yl-3,8-diazaspiro[4.5]decane-8-carbonyl)-2,3-dihydro-1H-inden-1-yl]-benzamide] are 100% and 104%.
Taken in the same sequence, the figures for `O=C(N[C@@H]1CCOc2cc(F)c(C(=O)N3CCC4(CC3)CCN(c3ccncc3)CC4)cc21)c1ccccc1Cl` [Example H-92, 2-Chloro-N-[(4R)-7-fluoro-6-(9-pyridin-4-yl-3,9-diazaspiro[5.5]undecane-3-carbonyl)-3,4-dihydro-2H-chromen-4-yl]-benzamide] were 96% and 104%.
Regarding `Cc1cc2c(cc1C(=O)N1CCC3(CCN(c4ccncc4)CC3)C1)[C@H](NC(=O)c1ccccc1Cl)CC2` [Example H-93, 2-Chloro-N-[(1R)-5-methyl-6-(8-pyridin-4-yl-3,8-diazaspiro[4.5]decane-3-carbonyl)-2,3-dihydro-1H-inden-1-yl]-benzamide], the inhibition at 10 µM in assay [1] was 100%; in assay [2] it was 103%.
Taken in the same sequence, the figures for `O=C(N[C@@H]1CCc2ccc(C(=O)N3CCC4(CCN(c5ccncc5)CC4)C3)cc21)c1cccc(Cl)c1Cl` [Example H-94, 2,3-Dichloro-N-[(1R)-6-(8-pyridin-4-yl-3,8-diazaspiro[4.5]decane-3-carbonyl)-2,3-dihydro-1H-inden-1-yl]-benzamide] were 100% and 98%.
With `O=C(N[C@@H]1CCc2ccc(C(=O)N3CCC4(CC3)CCN(c3ccncc3)CC4)cc21)c1cccc(Cl)c1Cl` [Example H-95, 2,3-Dichloro-N-[(1R)-6-(9-pyridin-4-yl-3,9-diazaspiro[5.5]undecane-3-carbonyl)-2,3-dihydro-1H-inden-1-yl]-benzamide], the inhibition at 10 µM in assay [1] was 100%; in assay [2], 98%.
Taken in the same sequence, the figures for `O=C(c1ccc2c(c1)[C@H](N1Cc3cccc(Cl)c3C1=O)CC2)N1CCC2(CCN(c3ccncc3)CC2)C1` [Example H-96, 7-Chloro-2-[(1R)-6-(8-pyridin-4-yl-3,8-diazaspiro[4.5]decane-3-carbonyl)-2,3-dihydro-1H-inden-1-yl]-2,3-dihydro-isoindol-1-one] were 100% and 104%.
Taken in the same sequence, the figures for `O=C(N[C@@H]1CCc2ccc(C(=O)N3CCC4(CCC(C(=O)N5CCn6ncnc6C5)CC4)CC3)cc21)c1ccccc1Cl` [Example H-97, 2-Chloro-N-[(1R)-6-[9-(5,6,7,8-tetrahydro-[1,2,4]triazolo[1,5-a]pyrazine-7-carbonyl)-3-azaspiro[5.5]undecane-3-carbonyl]-2,3-dihydro-1H-inden-1-yl]-benzamide] were 6% and 90%.
`O=C(N[C@@H]1CCc2ccc(C(=O)N3CCC4(CCN(c5ccncc5)CC4)C3)cc21)c1cc(Cl)ccc1Cl` [Example H-98, 2,5-Dichloro-N-[(1R)-6-(8-pyridin-4-yl-3,8-diazaspiro[4.5]decane-3-carbonyl)-2,3-dihydro-1H-inden-1-yl]-benzamide]: the results for the inhibition at 10 µM in assay [1] and in assay [2] were 100% and 108%, respectively.
For `O=C(N[C@@H]1CCc2ccc(C(=O)N3CCC4(CCN(c5ccncc5)CC4)C3)cc21)c1c(Cl)cccc1Cl` [Example H-99, 2,6-Dichloro-N-[(1R)-6-(8-pyridin-4-yl-3,8-diazaspiro[4.5]decane-3-carbonyl)-2,3-dihydro-1H-inden-1-yl]-benzamide], the inhibition at 10 µM in assay [1] was 100%; in assay [2] it was 105%.
As for `O=C(N[C@@H]1CCc2ccc(C(=O)N3CCC4(CC3)CCN(c3ccncc3)CC4)cc21)c1c(Cl)cccc1Cl` [Example H-100, 2,6-Dichloro-N-[(1R)-6-(9-pyridin-4-yl-3,9-diazaspiro[5.5]undecane-3-carbonyl)-2,3-dihydro-1H-inden-1-yl]-benzamide], the inhibition at 10 µM is 100% in assay [1] and 108% in assay [2].
Regarding `O=C(N[C@@H]1CCc2ccc(C(=O)N3CCC4(CCN(c5ccncc5)CC4)C3)cc21)c1ccccc1F` [Example H-101, 2-Fluoro-N-[(1R)-6-(8-pyridin-4-yl-3,8-diazaspiro[4.5]decane-3-carbonyl)-2,3-dihydro-1H-inden-1-yl]-benzamide], the inhibition at 10 µM in assay [1] is 97%; in assay [2], 107%.
On the same counts, the results for `O=C(N[C@@H]1CCc2ccc(C(=O)N3CCC4(CC3)CCN(c3ccncc3)CC4)cc21)c1ccccc1F` [Example H-102, 2-Fluoro-N-[(1R)-6-(9-pyridin-4-yl-3,9-diazaspiro[5.5]undecane-3-carbonyl)-2,3-dihydro-1H-inden-1-yl]-benzamide] are 100% and 109%.

The record behind these values is US8455475B2 (Gruenenthal GmbH, priority 2009, dated 2013).
